Results as given in ChEMBL document CHEMBL1201862, “PubChem BioAssay data set” (2004).
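Results reflect a 48-hour exposure of cells in 96-well plates to compound at five concentrations. GI50: concentration for 50% inhibition of growth.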 Activity calls are given as the source filed them. Cut-off read from the data, not from the text of the source: active = GI50 up to about 1.1 µM and inactive = higher.

Legend:
Assay in all cases: DTP human tumour cell line panel, 48 h
786-0 = tested on: 786-0
CCRF-CEM = tested on: CCRF-CEM
HCC 2998 = tested on: HCC 2998
HCT-116 = tested on: HCT-116
HOP-18 = tested on: HOP-18
K562 = tested on: K562
LOX IMVI = tested on: LOX IMVI
LXFL 529 = tested on: LXFL 529
MOLT-4 = tested on: MOLT-4
OVCAR-4 = tested on: OVCAR-4
OVCAR-8 = tested on: OVCAR-8
SF-268 = tested on: SF-268
SK-MEL-28 = tested on: SK-MEL-28
SNB-78 = tested on: SNB-78
UACC-257 = tested on: UACC-257
CAKI-1 = tested on: CAKI-1
SNB-75 = tested on: SNB-75
BT-549 = tested on: BT-549
MDA-N = tested on: MDA-N
Hs-578T = tested on: Hs-578T

| Compound | GI50 (786-0) | GI50 (CCRF-CEM) | GI50 (HCC 2998) | GI50 (HCT-116) | GI50 (HOP-18) | GI50 (K562) | GI50 (LOX IMVI) | GI50 (LXFL 529) | GI50 (MOLT-4) | GI50 (OVCAR-4) | GI50 (OVCAR-8) | GI50 (SF-268) | GI50 (SK-MEL-28) | GI50 (SNB-78) | GI50 (UACC-257) | GI50 (CAKI-1) | GI50 (SNB-75) | GI50 (BT-549) | GI50 (MDA-N) | GI50 (Hs-578T) |
| --- | --- | --- | --- | --- | --- | --- | --- | --- | --- | --- | --- | --- | --- | --- | --- | --- | --- | --- | --- | --- |
| C#CC1(O)CCC2[C@@H]3CCc4cc(Oc5nc(F)nc(-c6c7ccccc7c(SCC)n6CCC)n5)ccc4C3CC[C@@]21C (some centres not stated) | > 100 µM (inactive) | 39.4 µM (inactive) | > 100 µM (inactive) | 29.2 µM (inactive) | 24.2 µM (inactive) | 51.4 µM (inactive) | 76 µM (inactive) | 38.5 µM (inactive) | 28.7 µM (inactive) | > 100 µM (inactive) | > 100 µM (inactive) | 57.5 µM (inactive) | 50.7 µM (inactive) | > 100 µM (inactive) | > 100 µM (inactive) |  |  |  |  |  |
| CCn1c2c(c3ccccc31)C(c1ccccc1)CC1C(=O)N(c3ccccc3)C(=O)C21 (configuration not stated) | 21 µM (inactive) | > 100 µM (inactive) | 59 µM (inactive) | 55 µM (inactive) |  | 89.5 µM (inactive) | > 100 µM (inactive) | 42.8 µM (inactive) | 91.2 µM (inactive) | > 100 µM (inactive) | 9.59 µM (inactive) | > 100 µM (inactive) | 41.6 µM (inactive) | 36.8 µM (inactive) | > 100 µM (inactive) | 35.2 µM (inactive) | 17.6 µM (inactive) |  |  |  |
| CN1C(c2ccccc2)CC(=NO)CC1c1ccccc1 (configuration not stated) | 97.9 µM (inactive) | 28.2 µM (inactive) | 97.5 µM (inactive) | 19.3 µM (inactive) |  | 29.4 µM (inactive) | 19.7 µM (inactive) | 52.8 µM (inactive) | 19.2 µM (inactive) | 40.2 µM (inactive) | 47.4 µM (inactive) | 55.7 µM (inactive) | 91.2 µM (inactive) | > 100 µM (inactive) | 55.1 µM (inactive) | 48.2 µM (inactive) | 59.7 µM (inactive) |  |  |  |
| CC(C)(C)C1CCC2c3c([nH]c4ccccc34)C3C(=O)N(c4ccccc4)C(=O)C3C2C1 (configuration not stated) | 7.14 µM (inactive) | 2.77 µM (inactive) | 9.53 µM (inactive) |  | 4.76 µM (inactive) | 4.36 µM (inactive) | 3.79 µM (inactive) | 11.3 µM (inactive) | 3.31 µM (inactive) | 1.86 µM (inactive) | 4.84 µM (inactive) | 13.6 µM (inactive) | 4.97 µM (inactive) | 5.5 µM (inactive) |  |  | 2.85 µM (inactive) |  |  |  |
| CCOC(=O)C1C(=O)CC(=O)C2CCCCC21 (configuration not stated) | > 100 µM (inactive) | > 100 µM (inactive) |  | > 100 µM (inactive) |  | > 100 µM (inactive) | > 100 µM (inactive) | > 100 µM (inactive) | > 100 µM (inactive) | > 100 µM (inactive) | > 100 µM (inactive) | > 100 µM (inactive) | > 100 µM (inactive) | > 100 µM (inactive) | > 100 µM (inactive) | > 100 µM (inactive) | > 100 µM (inactive) |  |  |  |
| CCOc1ccc(OP2(=O)NC(=O)C=C(C)N2)cc1 (configuration not stated) | 92.9 µM (inactive) | 44.2 µM (inactive) |  | > 100 µM (inactive) | > 100 µM (inactive) | > 100 µM (inactive) | > 100 µM (inactive) | > 100 µM (inactive) | > 100 µM (inactive) | > 100 µM (inactive) | > 100 µM (inactive) | > 100 µM (inactive) | > 100 µM (inactive) | > 100 µM (inactive) | > 100 µM (inactive) | > 100 µM (inactive) | > 100 µM (inactive) |  |  |  |
| CN1CCOC(C(NC(=O)c2ccccc2)c2ccccc2)C1=O (configuration not stated) | > 100 µM (inactive) | > 100 µM (inactive) | > 100 µM (inactive) | > 100 µM (inactive) | > 100 µM (inactive) | > 100 µM (inactive) | > 100 µM (inactive) |  | > 100 µM (inactive) | > 100 µM (inactive) | > 100 µM (inactive) | > 100 µM (inactive) | > 100 µM (inactive) | > 100 µM (inactive) | > 100 µM (inactive) | > 100 µM (inactive) | 24.3 µM (inactive) |  |  |  |
| CN(C(=O)C12C3C4C1C1C2C3C41C#N)C(C)(C)C (configuration not stated) | > 100 µM (inactive) | > 100 µM (inactive) | > 100 µM (inactive) | > 100 µM (inactive) |  | > 100 µM (inactive) | > 100 µM (inactive) | > 100 µM (inactive) | > 100 µM (inactive) | > 100 µM (inactive) | > 100 µM (inactive) | > 100 µM (inactive) | > 100 µM (inactive) | > 100 µM (inactive) | > 100 µM (inactive) | > 100 µM (inactive) | 69.2 µM (inactive) |  |  |  |
| COc1ccc2c([nH]c3cc(O)c(C)cc32)c1C=O | > 25 µM (inactive) | 23.6 µM (inactive) | > 25 µM (inactive) | > 25 µM (inactive) |  | 14.6 µM (inactive) | > 25 µM (inactive) | > 25 µM (inactive) | 11.2 µM (inactive) | > 25 µM (inactive) | > 25 µM (inactive) | > 25 µM (inactive) | > 25 µM (inactive) | > 25 µM (inactive) |  |  |  |  |  |  |
| CC1=NN(C(=O)c2ccccc2O)C(=O)/C1=C/c1ccco1 | 1.64 µM (inactive) | 1.61 µM (inactive) | > 22.8 µM (inactive) | 2.23 µM (inactive) |  | 2.64 µM (inactive) | 2.67 µM (inactive) | 1.54 µM (inactive) | 1.93 µM (inactive) | 3.46 µM (inactive) | 2.59 µM (inactive) | 1.11 µM (active) | 14.6 µM (inactive) | 22.6 µM (inactive) | 8.73 µM (inactive) | 1.61 µM (inactive) | 3.02 µM (inactive) | 12.6 µM (inactive) | 0.53 µM (active) |  |
| O=C1CCC2(c3ccccc3)Nc3cc(Cl)ccc3N12 (configuration not stated) | 35.6 µM (inactive) | 25.1 µM (inactive) | 42.1 µM (inactive) |  |  | 32 µM (inactive) | 33 µM (inactive) | 31.4 µM (inactive) | 21.6 µM (inactive) | 35.2 µM (inactive) | 38.6 µM (inactive) | 40.8 µM (inactive) | 36.2 µM (inactive) | 31.7 µM (inactive) | 24 µM (inactive) | 21 µM (inactive) | 16 µM (inactive) |  |  |  |
| [N-]=[N+]=CC(=O)OC1Cc2ccccc2C1 | > 81.7 µM (inactive) | > 31.6 µM (inactive) | > 100 µM (inactive) | > 100 µM (inactive) |  | > 100 µM (inactive) | > 100 µM (inactive) |  | > 100 µM (inactive) | > 100 µM (inactive) | > 100 µM (inactive) | > 100 µM (inactive) | > 100 µM (inactive) |  | > 100 µM (inactive) | 1 µM (active) | 50.4 µM (inactive) | > 100 µM (inactive) | > 100 µM (inactive) | 42.9 µM (inactive) |
| COc1ccc(/N=N/C(=O)NC(CC(C)C)C(=O)NCC(=O)O)cc1 (configuration not stated) | > 100 µM (inactive) | 9.31 µM (inactive) | 8.97 µM (inactive) | 12.5 µM (inactive) |  | 0.451 µM (active) | 1.37 µM (inactive) |  | 1.83 µM (inactive) | > 51.5 µM (inactive) | 21.3 µM (inactive) | > 43.8 µM (inactive) | 57.7 µM (inactive) |  | 32.8 µM (inactive) | > 100 µM (inactive) | 89.5 µM (inactive) | > 38.7 µM (inactive) | 26.6 µM (inactive) | 89.3 µM (inactive) |
| O=C1C=C/C(=N\c2ccc3c(c2)C(Br)c2ccccc2-3)O1 (configuration not stated) | 29 µM (inactive) | 26.8 µM (inactive) | > 100 µM (inactive) | > 100 µM (inactive) |  | 42.8 µM (inactive) | 45.6 µM (inactive) | 28.8 µM (inactive) | 26.8 µM (inactive) |  | 72.6 µM (inactive) | > 100 µM (inactive) | > 100 µM (inactive) | > 100 µM (inactive) | > 100 µM (inactive) |  | > 100 µM (inactive) |  |  |  |
| ON/N=C/c1cc2c(cc1Br)OCO2 | > 386 µM (inactive) | > 386 µM (inactive) | > 386 µM (inactive) | > 386 µM (inactive) | > 386 µM (inactive) | > 386 µM (inactive) | > 386 µM (inactive) | > 386 µM (inactive) | 383 µM (inactive) |  | > 386 µM (inactive) | 247 µM (inactive) | > 386 µM (inactive) |  | > 386 µM (inactive) | > 386 µM (inactive) |  |  |  |  |
| N/C(=N\O)N/N=C/c1cccs1 | > 100 µM (inactive) | > 100 µM (inactive) | 33.4 µM (inactive) | > 100 µM (inactive) | 53.8 µM (inactive) | 86.9 µM (inactive) |  | 32.4 µM (inactive) |  | 34 µM (inactive) | 71.9 µM (inactive) | 17.2 µM (inactive) | > 100 µM (inactive) | > 100 µM (inactive) | > 100 µM (inactive) | 34.4 µM (inactive) | 20 µM (inactive) |  |  |  |
| COc1cc(OC)c2c(=O)cc(-c3ccc(OC)c(OC)c3OC)oc2c1 | 38.5 µM (inactive) | > 10 µM (inactive) | > 100 µM (inactive) | > 100 µM (inactive) |  | > 100 µM (inactive) | > 100 µM (inactive) | 89.5 µM (inactive) |  | 54.3 µM (inactive) |  | 48.2 µM (inactive) | > 100 µM (inactive) |  | > 100 µM (inactive) | > 100 µM (inactive) | 6.95 µM (inactive) |  |  |  |
| Brc1ccc2[nH]cc(-c3nc(-c4c[nH]c5ccccc45)cs3)c2c1 | 2.86 µM (inactive) | 3.79 µM (inactive) | 2.3 µM (inactive) | 2.53 µM (inactive) |  | 2.95 µM (inactive) | 1.93 µM (inactive) |  | 2.11 µM (inactive) | 6.03 µM (inactive) | 4.27 µM (inactive) | 3 µM (inactive) | 5.81 µM (inactive) |  | 3.97 µM (inactive) | 2.74 µM (inactive) | 10.4 µM (inactive) | 7.52 µM (inactive) | 2.91 µM (inactive) | 5.86 µM (inactive) |
